Reference: article PMC11124136, “New Thiazolidine-4-One Derivatives as SARS-CoV-2 Main Protease Inhibitors” (Pharmaceuticals, 2024)
Like-named read-outs stand apart in the source and are kept apart here.

How the values were obtained:
[1] = system: SARS-CoV-2 BetaCoV/Belgium/GHB-03021/2020 strain; experiment: microbe, parasite or virus in culture; type: cell-based; settings: read-out: EC50 + CP_100356
in vitro = type: cell-based; settings: African green monkey
Procedure: (§1) Vero-E6 GFP cells were seeded at 10^4 cells/well in 96-well black plates (PerkinElmer). The following day, cells were incubated, with or without compounds, with 2 μM P-gp inhibitor CP-100356 [47]. The media was removed 24 h after treatment, and the total well GFP fluorescence was measured using Victor NIVO 5 with 485/535 nm excitation wavelength. The cytotoxic effect of compounds was calculated as a percentage of cell viability with respect to untreated control. Data were analyzed using Prism 9. Version 9.1.2.

SARS-CoV-2 Mpro = SARS-CoV-2 Mpro (Severe acute respiratory syndrome coronavirus 2, UniProt P0DTD1); experiment: biochemical; type: biochemical; settings: for remaining activity at 30 µM: SARS-CoV-2 Mpro, at 30 μM (highest concentration tested), read-out: Percentage of control activity measured in the presence of the indicated drug concentration; for IC50: FRET assay, concentration reducing Mpro activity by 50%, mean ± SD of three independent experiments, highest concentration tested 30 μM
Vero-E6 GFP cells = experiment: in vitro; type: cell-based; settings: concentration reducing Vero E6-GFP viability by 50%; 2 μM CP-100356, 24 h; read-out: CC50 +CP_100356
Procedure: as §1

[2] = Severe acute respiratory syndrome coronavirus 2, Vero C1008, 72 h, concentration reducing viral replication by 50%, […]

SMILES | EC50 [1, 2] | CC50 at 24 h (in vitro) | remaining activity at 30 µM (SARS-CoV-2 Mpro) | melting point | EC50 [1] | CC50 (Vero-E6 GFP cells) | IC50 (SARS-CoV-2 Mpro)
O=C1CSC(c2ccc([N+](=O)[O-])cc2)N1CCc1ccccc1Cl (stereo not drawn) [Compound 4g] | > 100 µM | > 100 µM | – | – | – | – | –
COc1ccccc1CCN1C(=O)CSC1c1ccc([N+](=O)[O-])cc1 (stereo not drawn) [Compound 4e] | > 100 µM | > 100 µM | 54% | – | – | – | –
COc1ccc(CCN2C(=O)CSC2c2ccc([N+](=O)[O-])cc2)cc1 (stereo not drawn) [Compound 4f] | > 100 µM | > 100 µM | 82% | – | – | – | –
O=C1CSC(c2ccc([N+](=O)[O-])cc2)N1CCc1ccc(Cl)cc1 (stereo not drawn) [Compound 4i] | > 100 µM | > 100 µM | 54% | – | – | – | –
O=C1CSC(c2ccc([N+](=O)[O-])cc2)N1CCc1ccccc1Cl (stereo not drawn) [Compound 4e] | – | – | – | 123 to 124.5 °C | – | – | –
CC(C)C[C@H](NC(=O)OCc1ccccc1)C(=O)N[C@@H](CC1CCNC1=O)C(O)S(=O)(=O)O (stereo partly drawn) [GC376, reference compound] | – | – | – | – | 0.626 ± 0.06 µM | > 100 µM | –
O=C1CSC(c2ccc([N+](=O)[O-])cc2)N1CCc1ccccc1 (stereo not drawn) [Compound 4a, 2-(4-nitrophenyl)-3-(phenylethyl)-1,3-thiazolidin-4-one] | > 100 µM | > 100 µM | 53% | 125 °C | – | – | > 30 µM
O=C1CSC(c2ccc([N+](=O)[O-])cc2)N1CCc1cccc(F)c1 (stereo not drawn) [Compound 4c, 2-(4-nitrophenyl)-3-(3-fluorophenylethyl)-1,3-thiazolidin-4-one] | > 100 µM | > 100 µM | 87% | 165 to 167 °C | – | – | > 30 µM
O=C1CSC(c2ccc([N+](=O)[O-])cc2)N1CCc1ccc(F)cc1 (stereo not drawn) [Compound 4d, 2-(4-nitrophenyl)-3-(4-fluorophenylethyl)-1,3-thiazolidin-4-one] | > 100 µM | > 100 µM | – | 149 to 151 °C | – | – | 27.5 ± 5.5 µM
O=C1CSC(c2ccc([N+](=O)[O-])cc2)N1CCc1ccccc1F (stereo not drawn) [Compound 4b, 2-(4-nitrophenyl)-3-(2-fluorophenylethyl)-1,3-thiazolidin-4-one] | > 100 µM | > 100 µM | 70% | 150 to 151 °C | – | – | > 30 µM
